The values below come from patent US9211326B2, “Method of enhancing the proliferative phase of a primary T cell response” (Tampa Bay Research Institute, priority 2013, dated 2015).

“Also recorded” adds a separate entry of the source.

Test [1] deals with Bcl-2. Particulars: cited from earlier work.
For test [2], the system named is IL-2. The arrangement: species or system Balb/c mice. Particulars: mouse, in vivo.
Test [3] concerns Bax mRNA. The arrangement: species or system Balb/c mice. The conditions noted are these: mouse, in vivo.
In test [4] the test system is Bcl-2 mRNA. The test can be described thus: qPCR gene expression in lymph node cells: Bcl-2. The arrangement: species or system Balb/c mice. Particulars: mouse, in vivo.
Test [5] concerns Bcl-2. The arrangement: species or system Balb/c mice. Particulars: mouse, in vivo.
For test [6], the system named is Vβ8+ T cells. The arrangement: species or system Balb/c mice. The conditions noted are these: mouse, in vivo.
Test [7] deals with IFNg. The arrangement: species or system Balb/c mice. The conditions noted are these: mouse, in vivo.
The test system of test [8] is Vβ8+ T cells. The arrangement: species or system Balb/c mice. Particulars: mouse, in vivo. This is another data set of the same source.
The subject of test [9] is Bcl-xL mRNA. The test can be described thus: qPCR gene expression in lymph node cells: Bcl-xL. The arrangement: species or system Balb/c mice. Particulars: mouse, in vivo. (In qPCR the cycle at which signal appears reflects the starting amount.)
In test [10] the test system is IL-12p70. The arrangement: species or system Balb/c mice. Particulars: mouse, in vivo.

Regarding `O=C(O)c1ccc(/C2=C3\C=CC(=N3)/C(c3ccc(C(=O)O)cc3)=c3/cc/c4[n]3[Mn]([Cl])[n]3c2ccc3/C(c2ccc(C(=O)O)cc2)=C2/C=CC(=N2)\C=4c2ccc(C(=O)O)cc2)cc1` [MnTBAP], the “ROS induced decline in Bcl-2” value in test [1] was “reversed”.
Staphylococcal enterotoxin B [SEB]: the “serum IL-2 level” value in test [2] is recorded as “significant increase”. Also, the “Bax mRNA level in lymph nodes” value in [3] is listed as “did not appear to be significantly affected”. Besides, the “Bcl-2 mRNA level in lymph nodes” value in [4] was “suppressed; also recorded: reduction”. Also, the “intracellular Bcl-2 protein per Vβ8+ T cell” value in test [5] was “equally reduced amounts”. The “numbers of CD3+/CD8+/Vβ8+ T cells” value in test [6] is given as “remained elevated”. In [7], the “serum IFNg level” value is on record as “significant increase”. For the same compound, in [8], the “percentage of Annexin V positive Vβ8+ T cells” value was “significantly enhanced”. For the same compound, in test [9], the “Bcl-xL mRNA level in lymph nodes” value is recorded as “suppressed; also recorded: reduced”. For the same compound, in test [10], the “serum IL-12p70 level” value is given as “significant increase”.
